According to patent US9067937B2 (priority 2012, dated 2015):
Structures can show the parent of a compound that is named as a salt.

Assays:
T47D cells = assay: Cell-based assay, anti-proliferative activity (Cell Counting Kit-8, 72 hours); design: species or system human; details: Homo sapiens, T47D, 72 h, read-out: IC50 (μM) (T47D)
How it was run: (§1)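 Cells seeded at 2,000–3,000 cells/well and exposed to candidate MELK inhibitors for 72 hours; growth measured with Cell Counting Kit-8. IC50 values calculated from the growth read-out.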

A549 cells = assay: as above; design: species or system human; details: Homo sapiens, A549, 72 h, read-out: IC50 (μM) (A549)
How it was run: as §1

DU4475 cells = assay: as above; design: species or system human; details: Homo sapiens, DU-4475, 72 h, read-out: IC50 (μM) (DU4475)
How it was run: as §1

22Rv1 cells = assay: as above; design: species or system human; details: Homo sapiens, 22Rv1, 72 h, read-out: IC50 (μM) (22Rvl)
How it was run: as §1

HT1197 cells = assay: Cell-based assay, anti-proliferative activity, MELK-negative control (Cell Counting Kit-8, 72 hours); design: species or system human; details: Homo sapiens, HT1197, 72 h, read-out: IC50 (μM) (HTll97)
Method: 100 micro-L of cell suspension was seeded onto 96-well microtiter plate (ViewPlate-96FTC, PerkinElmer). The initial cell concentration of 22Rv1, T47D, A549, DU4475, and HT1197 were 3,000 cells/well, 2,000 cells/well and 2,500 cells/well, respectively. Cellular growth was determined using Cell Counting Kit-8 (DOJINDO) at 72 hours after the exposure of the candidate inhibitors. […] Accurate IC50 values were calculated as described previously.

MELK = MELK (Homo sapiens, UniProt Q14680); assay: Kinase assay (IMAP fluorescence polarization, FITC-labeled histone H3 peptide); format: biochemical; details: 50 micro-M ATP
Chain of MELK (Q14680 whole entry, looked up): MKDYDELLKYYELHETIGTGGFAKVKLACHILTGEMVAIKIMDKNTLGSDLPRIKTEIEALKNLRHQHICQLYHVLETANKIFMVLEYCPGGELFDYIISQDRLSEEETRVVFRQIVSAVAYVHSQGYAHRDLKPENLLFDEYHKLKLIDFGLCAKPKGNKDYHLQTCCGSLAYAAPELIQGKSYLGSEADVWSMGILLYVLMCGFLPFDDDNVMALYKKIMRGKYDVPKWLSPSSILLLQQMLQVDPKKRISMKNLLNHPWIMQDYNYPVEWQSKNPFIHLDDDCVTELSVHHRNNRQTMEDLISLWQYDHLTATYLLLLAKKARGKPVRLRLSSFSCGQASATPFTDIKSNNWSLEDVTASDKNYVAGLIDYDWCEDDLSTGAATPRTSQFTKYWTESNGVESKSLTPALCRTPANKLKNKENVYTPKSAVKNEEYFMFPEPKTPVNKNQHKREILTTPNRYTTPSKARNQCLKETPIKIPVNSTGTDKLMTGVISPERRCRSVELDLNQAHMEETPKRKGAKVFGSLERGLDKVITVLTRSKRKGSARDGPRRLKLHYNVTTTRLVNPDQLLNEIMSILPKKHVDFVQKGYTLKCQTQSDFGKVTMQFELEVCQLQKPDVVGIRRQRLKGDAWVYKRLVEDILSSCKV
How it was run: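 Kinase (0.8 ng/μL) reacted with 100 nM FITC-histone H3 peptide and 50 μM ATP in 20 mM HEPES, 0.3 mM MgCl2, 2 mM DTT, 0.01% Tween-20, pH 7.4, for 1 hour at room temperature. Phosphorylation read by IMAP fluorescence polarization after adding binding solution; IC50 from four-parameter fit.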

Row | Compound | IC50 (T47D cells) [µM] | IC50 (A549 cells) [µM] | IC50 (DU4475 cells) [µM] | IC50 (22Rv1 cells) [µM] | IC50 (HT1197 cells) [µM] | IC50 (MELK) [µM]
1 | CC(=O)c1cnc2ccc(-c3cc(F)c(O)c(Cl)c3)nc2c1Nc1ccc(NCCN(C)C)nc1 [Example 39, 1-[6-(3-Chloro-5-fluoro-4-hydroxyphenyl)-4-{6-[2-(dimethylamino)ethylamino]pyridin-3-ylamino}-1,5-naphthyridin-3-yl]ethanone trihydrochloride] | 0.12 | 0.44 | 0.19 | 0.38 | 10 | 0.03
2 | N[C@H]1CCCN(c2ccc(Nc3c(C(=O)C4CC4)cnc4ccc(-c5cc(Cl)c(O)c(Cl)c5)nc34)cn2)C1 [Example 40, (S)-{4-[6-(3-Aminopiperidin-1-yl)pyridin-3-ylamino]-6-(3,5-dichloro-4-hydroxyphenyl)-1,5-naphthyridin-3-yl}(cyclopropyl)methanone trihydrochloride] | 0.025 | 0.29 | 0.02 | 0.034 | 4.2 | 0.0012
3 | CC(=O)c1cnc2ccc(-c3cc(Cl)c(O)c(Cl)c3)nc2c1Nc1cnc(N2CCC(N)C2)nc1 (stereo not drawn) [Example 41, 1-{4-[2-(3-Aminopyrrolidin-1-yl)pyrimidin-5-ylamino]-6-(3,5-dichloro-4-hydroxyphenyl)-1,5-naphthyridin-3-yl}ethanone trihydrochloride] | 0.027 | 0.27 | 0.026 | 0.052 | 100 | 0.0017
4 | CC(=O)c1cnc2ccc(-c3cn[nH]c3)nc2c1N[C@H]1CC[C@H](CN(C)C)CC1 [Example 42, 1-(4-{trans-4-[(Dimethylamino)methyl]cyclohexylamino}-6-(1H-pyrazol-4-yl)-1,5-naphthyridin-3-yl)ethanone trihydrochloride] | 0.036 | 0.049 | 0.045 | 0.063 | 0.06 | 0.017
5 | CC(=O)c1cnc2ccc(-c3cc(Cl)c(O)c(Cl)c3)nc2c1N[C@H]1CC[C@H](CO)CC1 [Example 43, 1-(6-{3,5-Dichloro-4-hydroxyphenyl)-4-[trans-4-(hydroxymethyl)cyclohexyl]amino}-1,5-naphthyridin-3-yl)ethanone hydrochloride] | 0.024 | 0.057 | 0.019 | 0.085 | 0.64 | 0.0031
6 | CN(C)C[C@H]1CC[C@H](Nc2c(C(=O)CO)cnc3ccc(-c4cc(Cl)c(O)c(Cl)c4)nc23)CC1 [Example 44, 1-[6-(3,5-Dichloro-4-hydroxyphenyl)-4-{trans-4-[(dimethylamino)methyl]cyclohexyl-amino}-1,5-naphthyridin-3-yl]-2-hydroxyethanone dihydrochloride] | 0.0029 | 0.0067 | 0.0017 | 0.006 | 0.2 | 0.0003
7 | CC(=O)c1cnc2ccc(-c3cc(Cl)c(O)c(Cl)c3)nc2c1NC1CCN(C)CC1 [Example 45, 1-{6-(3,5-Dichloro-4-hydroxyphenyl)-4-[(1-methylpiperidin-4-yl)amino]-1,5-naphthyridin-3-yl}ethanone] | 0.086 | 0.065 | 0.096 | 0.096 | 0.45 | 0.0058
8 | CC(=O)c1cnc2ccc(-c3cc(F)c(O)c(Cl)c3)nc2c1NC1CCN(C)CC1 [Example 46, 1-{6-(3-Chloro-5-fluoro-4-hydroxyphenyl)-4-[(1-methylpiperidin-4-yl)amino]-1,5-naphthyridin-3-yl}ethanone] | 0.092 | 0.098 | 0.14 | 0.14 | 0.53 | 0.0061
9 | CC(=O)c1cnc2ccc(-c3cc(Cl)c(O)c(Cl)c3)nc2c1N[C@H]1CC[C@H](CN2CCOCC2)CC1 [Example 47, 1-[6-(3,5-Dichloro-4-hydroxyphenyl)-4-{[trans-4-(morpholinomethyl)cyclohexyl]amino}-1,5-naphthyridin-3-yl]ethanone] | 0.015 | 0.02 | 0.009 | 0.034 | 0.16 | 0.01
10 | CC(=O)c1cnc2ccc(-c3cc(Cl)c(O)c(Cl)c3)nc2c1N[C@H]1CC[C@H](CN(C)CCO)CC1 [Example 48, 1-[6-(3,5-Dichloro-4-hydroxyphenyl)-4-(trans-4-{[(2-hydroxyethyl)(methyl)amino]methyl}-cyclohexylamino)-1,5-naphthyridin-3-yl]ethanone dihydrochloride] | 0.0068 | 0.02 | 0.0034 | 0.0092 | 0.57 | 0.0006
11 | CC(=O)c1cnc2ccc(-c3cc(F)c(O)c(Cl)c3)nc2c1N[C@H]1CC[C@H](CN(C)CCO)CC1 [Example 49, 1-[6-(3-Chloro-5-fluoro-4-hydroxyphenyl)-4-(trans-4-{[(2-hydroxyethyl)(methyl)amino]-methyl}cyclohexylamino)-1,5-naphthyridin-3-yl]ethanone dihydrochloride] | 0.0039 | 0.021 | 0.0039 | 0.0087 | 0.49 | 0.001
12 | CC(=O)c1cnc2ccc(-c3cc(F)c(O)c(F)c3)nc2c1N[C@H]1CC[C@H](CN(C)C)CC1 [Example 50, 1-[6-(3,5-Difluoro-4-hydroxyphenyl)-4-{trans-4-[(dimethylamino)methyl]cyclohexylamino}-1,5-naphthyridin-3-yl]ethanone dihydrochloride] | 0.0061 | 0.015 | 0.0053 | 0.017 | 0.08 | 0.0019
13 | CC(=O)c1cnc2ccc(-c3cc(Cl)c(O)c(Cl)c3)nc2c1Nc1ccc(N2CCC(N(C)C)C2)nc1 (stereo not drawn) [Example 51, 1-[6-(3,5-Dichloro-4-hydroxyphenyl)-4-{6-[3-(dimethylamino)pyrrolidin-1-yl]pyridin-3-ylamino}-1,5-naphthyridin-3-yl]ethanone trihydrochloride] | 0.19 | 0.32 | 0.32 | 0.36 | 2.8 | 0.0082
14 | CC(=O)c1cnc2ccc(-c3cc(F)c(O)c(Cl)c3)nc2c1Nc1ccc(N2CCC(N(C)C)C2)nc1 (stereo not drawn) [Example 52, 1-[6-(3-Chloro-5-fluoro-4-hydroxyphenyl)-4-{6-[3-(dimethylamino)pyrrolidin-1-yl]pyridin-3-ylamino}-1,5-naphthyridin-3-yl]ethanone trihydrochloride] | 0.18 | 0.39 | 0.4 | 0.44 | 2 | 0.027
15 | CNC1CCN(c2ccc(Nc3c(C(C)=O)cnc4ccc(-c5cc(Cl)c(O)c(Cl)c5)nc34)cn2)C1 (stereo not drawn) [Example 53, 1-(6-(3,5-Dichloro-4-hydroxyphenyl)-4-{6-[3-(methylamino)pyrrolidin-1-y]pyridin-3-ylamino}-1,5-naphthyridin-3-yl)ethanone trihydrochloride] | 0.042 | 0.2 | 0.071 | 0.078 | 100 | 0.0015
